Tests used:
Hepatitis C virus [1] = assay: Antiviral activity against HCV genotype 1a by replicon assay; type: functional, organism-based, Hepacivirus hominis; details: subtype 1a
Hepatitis C virus [2] = assay: Antiviral activity against HCV genotype 1a expressing NS5A Y93H mutant by replicon assay; type: functional, organism-based, Hepacivirus hominis; details: subtype 1a

SMILES: COC(=O)N[C@H](C(=O)N1CCC[C@H]1c1ncc(-c2ccc(-c3ccc4c(ccc5nc([C@@H]6C[Si](C)(C)CN6C(=O)[C@@H](NC(=O)OC)C(C)O)[nH]c54)c3)cc2)[nH]1)C(C)C (stereo partly specified)
- EC50 (Hepatitis C virus [1]): 0.6 nM
- EC50 (Hepatitis C virus [2]): > 1000 nM

SMILES: COC(=O)N[C@H](C(=O)N1C[Si](C)(C)C[C@H]1c1nc2ccc3cc(-c4ccc(-c5cnc([C@@H]6CCCN6C(=O)[C@@H](NC(=O)OC)C(C)O)[nH]5)cc4)ccc3c2[nH]1)C(C)C (stereo partly specified)
- EC50 (Hepatitis C virus [1]): 0.14 nM
- EC50 (Hepatitis C virus [2]): 579 nM

SMILES: COC(=O)N[C@H](C(=O)N1C[Si](C)(C)C[C@H]1c1ncc(-c2ccc(-c3ccc4c(ccc5nc([C@@H]6CCCN6C(=O)[C@@H](NC(=O)OC)C(C)C)[nH]c54)c3)cc2OC)[nH]1)C(C)C
- EC50 (Hepatitis C virus [1]): 0.27 nM
- EC50 (Hepatitis C virus [2]): 497 nM

SMILES: COC(=O)N[C@H](C(=O)N1C[Si](C)(C)C[C@H]1c1nc2ccc3cc(-c4ccc(-c5cnc([C@@H]6CCCN6C(=O)[C@@H](NC(=O)OC)C6CCCC6)[nH]5)cc4)ccc3c2[nH]1)C(C)C
- EC50 (Hepatitis C virus [1]): 0.2 nM
- EC50 (Hepatitis C virus [2]): 590 nM

SMILES: COC(=O)N[C@H](C(=O)N1C[Si](C)(C)C[C@H]1c1ncc(-c2ccc(-c3ccc4c(ccc5nc([C@@H]6CCCN6C(=O)[C@@H](NC(=O)OC)C(C)C)[nH]c54)c3)cc2F)[nH]1)C(C)C
- EC50 (Hepatitis C virus [1]): 0.05 nM
- EC50 (Hepatitis C virus [2]): 329 nM

SMILES: COC(=O)N[C@H](C(=O)N1CCC(F)(F)C[C@H]1c1ncc(-c2ccc(-c3ccc4c(ccc5nc([C@@H]6C[Si](C)(C)CN6C(=O)[C@@H](NC(=O)OC)C(C)C)[nH]c54)c3)cc2)[nH]1)C(C)C
- EC50 (Hepatitis C virus [1]): 0.1 nM
- EC50 (Hepatitis C virus [2]): 728 nM

SMILES: COC(=O)N[C@H](C(=O)N1C[Si](C)(C)C[C@H]1c1nc2ccc3cc(-c4ccc(-c5cnc([C@@H]6CCCN6C(=O)[C@@H](NC(=O)OC)C(C)OC)[nH]5)cc4)ccc3c2[nH]1)C(C)C (stereo partly specified)
- EC50 (Hepatitis C virus [1]): 0.07 nM
- EC50 (Hepatitis C virus [2]): 225 nM

SMILES: CCC(C)[C@H](NC(=O)OC)C(=O)N1CCC[C@H]1c1ncc(-c2ccc(-c3ccc4c(ccc5nc([C@@H]6C[Si](C)(C)CN6C(=O)[C@@H](NC(=O)OC)C(C)C)[nH]c54)c3)cc2)[nH]1 (stereo partly specified)
- EC50 (Hepatitis C virus [1]): 0.15 nM
- EC50 (Hepatitis C virus [2]): 640 nM

SMILES: COC(=O)N[C@H](C(=O)N1C[Si](C)(C)C[C@H]1c1nc2ccc3cc(-c4ccc(-c5cnc([C@@H]6C[C@H]7C[C@H]7N6C(=O)[C@@H](NC(=O)OC)C(C)C)[nH]5)cc4)ccc3c2[nH]1)C(C)C
- EC50 (Hepatitis C virus [2]): 30 nM

SMILES: COC(=O)N[C@H](C(=O)N1C[Si](C)(C)C[C@H]1c1ncc(-c2ccc(-c3ccc4c(ccc5nc([C@@H]6CCCN6C(=O)[C@@H](NC(=O)OC)C(C)C)[nH]c54)c3)cc2C2CC2)[nH]1)C(C)C
- EC50 (Hepatitis C virus [1]): 0.43 nM
- EC50 (Hepatitis C virus [2]): 1600 nM

SMILES: COC(=O)N[C@H](C(=O)N1CCC[C@H]1c1ncc(-c2ccc(-c3ccc4c(ccc5nc([C@@H]6C[Si](C)(C)CN6C(=O)[C@@H](NC(=O)OC)C6CC6)[nH]c54)c3)cc2)[nH]1)C(C)C
- EC50 (Hepatitis C virus [1]): 0.05 nM
- EC50 (Hepatitis C virus [2]): 87 nM

SMILES: COC(=O)N[C@H](C(=O)N1C[Si](C)(C)C[C@H]1c1nc2ccc3cc(-c4ccc(-c5cnc([C@@H]6CCCN6C(=O)[C@@H](NC(=O)OC)C6CC6)[nH]5)cc4)ccc3c2[nH]1)C(C)C
- EC50 (Hepatitis C virus [1]): 0.08 nM
- EC50 (Hepatitis C virus [2]): 260 nM

SMILES: COC(=O)N[C@H](C(=O)N1CCC[C@H]1c1ncc(-c2ccc(-c3ccc4c(ccc5nc([C@@H]6C[Si](C)(C)CN6C(=O)[C@@H](NC(=O)OC)C6CCCC6)[nH]c54)c3)cc2)[nH]1)C(C)C
- EC50 (Hepatitis C virus [1]): 0.09 nM
- EC50 (Hepatitis C virus [2]): 471 nM

SMILES: COC(=O)N[C@H](C(=O)N1CCC[C@H]1c1ncc(-c2ccc(-c3ccc4c(ccc5nc([C@@H]6C[Si](C)(C)CN6C(=O)[C@@H](NC(=O)OC)C(C)OC)[nH]c54)c3)cc2)[nH]1)C(C)C (stereo partly specified)
- EC50 (Hepatitis C virus [1]): 0.03 nM
- EC50 (Hepatitis C virus [2]): 275 nM

SMILES: CCC(C)[C@H](NC(=O)OC)C(=O)N1C[Si](C)(C)C[C@H]1c1nc2ccc3cc(-c4ccc(-c5cnc([C@@H]6CCCN6C(=O)[C@@H](NC(=O)OC)C(C)C)[nH]5)cc4)ccc3c2[nH]1 (stereo partly specified)
- EC50 (Hepatitis C virus [1]): 0.08 nM
- EC50 (Hepatitis C virus [2]): 279 nM

SMILES: COC(=O)N[C@H](C(=O)N1C[Si](C)(C)C[C@H]1c1ncc(-c2ccc(-c3ccc4c(ccc5nc([C@@H]6CCCN6C(=O)[C@@H](NC(=O)OC)C(C)C)[nH]c54)c3)cc2-c2cccs2)[nH]1)C(C)C
- EC50 (Hepatitis C virus [1]): 0.5 nM
- EC50 (Hepatitis C virus [2]): 1150 nM

Source: ChEMBL document CHEMBL3763064, “Discovery of silyl proline containing HCV NS5A inhibitors with pan-genotype activity: SAR development” (Bioorg Med Chem Lett, 2016)
